Here are results for three molecules from ChEMBL document CHEMBL1127429, “4-Deacetyltaxol and 10-acetyl-4-deacetyltaxotere: synthesis and biological evaluation” (J Med Chem, 1994).

Bounds are passed on as bounds.

A short description of assay [1]: Ratio of ED50 to that of taxol.
Assay [2] can be described thus: In vitro binding affinity to reduce the supernatant protein concentration of the microtubule.

For `CC(=O)O[C@H]1C(=O)[C@@]2(C)[C@H]([C@H](OC(=O)c3ccccc3)[C@]3(O)C[C@H](OC(=O)[C@H](O)[C@@H](NC(=O)c4ccccc4)c4ccccc4)C(C)=C1C3(C)C)[C@]1(OC(C)=O)CO[C@@H]1C[C@@H]2O`, the Ratio in assay [1] was determined as 1. This molecule displayed an ED50 in assay [2] of 0.93 µM.
For `CC(=O)O[C@H]1C(=O)[C@@]2(C)[C@H]([C@H](OC(=O)c3ccccc3)[C@]3(O)C[C@H](OC(=O)[C@H](O)[C@@H](NC(=O)OC(C)(C)C)c4ccccc4)C(C)=C1C3(C)C)[C@]1(O)CO[C@@H]1C[C@@H]2O`, the Ratio in assay [1] is more than 32. Further, the ED50 in assay [2] is more than 30 µM.
As to `CC(=O)O[C@H]1C(=O)[C@@]2(C)[C@H]([C@H](OC(=O)c3ccccc3)[C@]3(O)C[C@H](OC(=O)[C@H](O)[C@@H](NC(=O)c4ccccc4)c4ccccc4)C(C)=C1C3(C)C)[C@]1(O)CO[C@@H]1C[C@@H]2O`, the Ratio in assay [1] was more than 32. The molecule also had an ED50 in assay [2] of more than 30 µM.
